Source: patent US6746686B2, “Coated implants” (Biocompatibles UK Limited, priority 2001, dated 2004)

Assays:
Format in all cases: physicochemical
[1] = Uptake of fluorescence labelled oligonucleotide on polymer 2.2 coated stent; settings: polymer 2.2 coated stents; 30 minutes in 5 mg/ml solution in physiological saline
Procedure: Stents coated with polymer 2.2 were loaded with a 15-mer c-myc antisense oligonucleotide AACGTTGAGGGGCAT (sequence ID 2) labelled with a fluorescence label by immersing them for 30 minutes in a 5 mg/ml solution of the DNA in physiological saline.
The total loading was determined by placing 3 of the stents each into 3 ml PBS and sonicating for 30 minutes. The fluorescent label was quantified.

[2] = Loading of polymer films with FITC-Dextran; settings: FITC-Dextran mwt 4400; polymer 1.1 and polymer 2.1 coatings
Procedure: Steel strips (1 cm×1.5 cm) were cleaned in dichloromethane for 10 minutes using the ultra-sonics bath. 200 ul of a 50 mg/ml polymer solution was evenly coated onto the steel strips. For each polymer sample seven steel strips were coated. Coated steel strips were then dried overnight in a oven at 70° C. to cure the polymer films.
Six of the coated steel strips were placed polymer side down into a well containing a 1 mg/ml drug solution. One control sample was not loaded with drug. The steel strips were submerged for 1 hour. The steel strips were then removed from the well and the excess drug removed by dabbing the surface very gently with tissue. The steel strips were then allowed to dry for a further half hour at room temperature. Each sample was then dipped quickly in clean PBS solution to remove excess drug from the coating. (3 secs dip). Each steel strip was then placed in 3 ml of PBS solution contained in vials. Each vial was then sonicated for 20 mins at a bath temperature of 35° C. in order to extract the drug from the polymer coating. Each solution was then measured using fluorescence spectroscopy to determine the amount of drug uptake
In order to study the effect of drug molecular weight on the amount loaded into a polymer coating, a compound with a variety of molecular weights which could be detected by fluorescence had to be identified. […]

[3] = Abciximab loading and elution in vitro
Procedure: In this study ^125I-labelled abciximab was loaded onto stents coated with either polymer 2.2 or as a comparison a bare stent (no polymer) by immersing the stents in a solution of 2 mg/ml drug in phosphate buffered saline containing 0.001% polysorbate 80 to assist dissolution for 30 minutes at room temperature. The stents were removed and wick dried. The stents were then placed into channels each forming part of a separate circuit of recirculating ([…]) phosphate buffered saline containing 1% albumin at 37° C. The level of 1251 label remaining on the stent was determined by measuring the level of label in the circulating PBS over a period of 24 or 48 hours and reported in percentage terms. The total loading of drug on stent was also determined and found to be about 5 μg per stent for the stents coated with polymer 2.2.

[4] = Radiolabelled (35S) heparin loading and elution, polymer 2.2 coated stents
Procedure: Radiolabelled (^35S) heparin (MW 8-10 kDa) was loaded onto stents coated with polymer 2.2, from a 2 mg/ml aqueous solution. To determine the total loading the stents were placed into liquid scintillant and coated for radioactivity. The mean uptake of heparin was 11 μg per stent. The stents were each placed into a volume of PBS to determine the rate of elution of heparin over a 4 hour period.

[5] = Heparin loading and release, polymer 2.1 coated stents
Procedure: This study investigated the ability of polymer 2.1 coated stents to take up and release a sample of unfractionated heparin with an average molecular weight of approx. 10000D.
Loading was carried out by immersion of the coated stents into a solution of heparin in PBS. A range of conditions were used to investigate the loading onto the stents.
Table 6 Summary of conditions and results of heparin loading and release Notes—*the time where released heparin reaches maximum; **the maximum weight of heparin released during a releasing experiment (see maximum point of the release profile, FIG. 2)

[6] = polymer 2.1 stent, loading 0.2 mg/ml, 30 min, released into 1 volume PBS
[7] = polymer 2.1 stent, loading 2.0 mg/ml, 30 min, released into 0.5 volume PBS
[8] = polymer 2.1 stent, loading 10 mg/ml, 5 min, released into 0.5 volume PBS

AACGTTGAGGGGCAT [15-mer c-myc antisense oligonucleotide]
Total loading [1]: about 20 μg per stent

Fluorescein Iso Thiocyanate Dextran [FITC-Dextran]
Uptake into polymer coatings [2]: could not be detected

abciximab: antibody (MW about 50 kDa) to glycoprotein IIb/IIIa
Release time from stent ([3]; cationic polymer (2.2) vs bare stent, PBS with 1% albumin at 37° C.): released over a more extended time | Total loading of drug on stent ([3]; stents coated with polymer 2.2, 2 mg/ml, 30 minutes, room temperature): about 5 μg per stent

heparin
Mean uptake of heparin ([4]; 2 mg/ml aqueous solution): 11 μg per stent | Release pattern ([4]; elution into PBS over 4 hours): released initially as a burst | Time to 100% release of heparin ([4]; elution into PBS, extrapolation of 4 hour release data): about 24 hours | Release from the stents ([5]; polymer 2.1 coated stents): released from the stents over a prolonged period of time | Total loading ([5]; polymer 2.1 stent, loading 0.2 mg/ml, 30 min): 3.4 µg | Tmax (time where released heparin reaches maximum) [5, 6]: 15 min | Wmax (maximum weight of heparin released) [5, 6]: 0.73 µg | Tmax (time where released heparin reaches maximum) [5, 7]: 20 min | Wmax (maximum weight of heparin released) [5, 7]: 2.07 µg | Tmax (time where released heparin reaches maximum) [5, 8]: 10 min | Wmax (maximum weight of heparin released) [5, 8]: 13.93 µg
